# Experimental data as given in patent US20110230431A1, “FOSFOMYCIN/TOBRAMYCIN COMBINATIONS FOR THE TREATMENT AND PREVENTION OF OPHTHALMIC, OTOLOGICAL AND DERMATOLOGICAL INFECTIONS” (Gilead Sciences, Inc., priority 2008, published 2011).
# Read-outs that look alike come from different tables or passages of the source.
# How the values were obtained:
# [1] = test system: Cell Wall Synthesis in P. aeruginosa ATCC 27853; test: Macromolecular biosynthesis: 3H-N-acetyl-D-glucosamine incorporation; type: cell-based, Pseudomonas aeruginosa; conditions: at 2 h relative to no-drug control, single experiment
# Protocol: (§1) Picataway, N.J.) and N-acetyl-D-Glucosamine (^3H-NAG) (GE Healthcare Bio-Sciences), respectively (Baum, E Z, Antimicrob Agents Chernother 2001; 45 (11): 3182-3188). A single colony of P. aeruginosa ATCC 27853 was inoculated into 10 mL of CAMHB and incubated for 16 h, at 37° C., 200 rpm in a shaking water bath. […] At various time points, 100 μl aliquots (triplicate) of culture were removed and added to 100 μl of 20% TCA (VWR) in 96-well flat bottom trays (VWR). Plates were incubated on crushed ice for 60 min to precipitate the incorporated ^3H-precursors. Samples were harvested onto glass fibre filters (GFC) (PerkinElmer; Waltham, Mass.). Filters were washed two times with 35 mL of normal saline to remove unincorporated isotope followed by one wash with 35 mL of 90% ETOH (VWR). Filters were dried under a lamp for 1 h to reduce remaining moisture and then sealed in bags containing 5 mL of scintillation cocktail (Betaplate Scint; PerkinElmer). Counts per minute (CPM) were determined using a Wallac MicroBeta Trilux (PerkinElmer). Mean CPM±standard deviation (SD) were determined for each treatment group. Background counts consisting of a media-only sample were subtracted from the no-drug and antibiotic treatment groups. The percent inhibition of incorporation was determined relative to the no-drug controls. The activities of the three drugs were compared by calculating the time to 50% inhibition (T1/2), and statistical differences at each time point were evaluated by the Analysis of Variance (ANOVA; GraphPad Prisma software package 3.03; GraphPad Software, Inc., San Diego, Calif.). Each curve represents 4 replicate experiments, each time point performed in triplicate.
# P. aeruginosa [2] = test: MIC by agar plate dilution method (CLSI); type: cell-based, Pseudomonas aeruginosa
# Text: (§2) P. aeruginosa strains isolated from patients with cystic fibrosis (CF) were obtained from Children's Hospital and Regional Medical Center (Seattle, Wash.). Clinical isolates of Escherichia coli and Staphylococcus aureus were obtained from The Jones Group Laboratories (JMI; North Liberty, Iowa) and The Clinical Microbiology Institute (CMI; Wilsonville, Oreg.). P. aeruginosa 27853, S. aureus 29213, and E. coli 25922 served as quality control strains^1 and were obtained from The America Type Culture Collection (ATCC; Manassas, Va.). P. aeruginosa ATCC 27853, a fosfomycin and tobramycin susceptible strain, was used in macromolecular biosynthesis and tobramycin uptake experiments. Stock cultures were maintained at −80° C. in Cation-Adjusted Mueller-Hinton Broth (CAMHB) (Remel; Lenexa, Kans.) supplemented with 20% glycerol (VWR: West Chester, Pa.). Cultures for routine use were grown on tryptic soy agar plates+5% sheeps blood (PML Microbiologicals Inc.; Wilsonville, Oreg.) and stored at 4° C.
# (§3) MICs were determined by the agar plate dilution method according to CLSI guidelines (National Committee for Clinical Laboratory Standards. M7-A6. 6th ed. Villanova (Pa.): NCCLS, 2003; M100-S14. Villanova (Pa.): NCCLS, 2004).
# E. coli = type: cell-based, Escherichia coli
# Protocol: (§4) Development of resistance after a single exposure to antibiotic was determined for both clinical and reference isolates of P. aeruginosa, S. aureus, and E. coli. Late Log-phase cultures were centrifuged at 1,400×g at room temperature for 20 min and the cell pellets resuspended in CAMHB. […] The culture plates were incubated at 37° C. for 48 h and the number of colonies on each plate was enumerated manually. The spontaneous mutation frequency (SMF) resulting in antibiotic resistance was calculated by dividing the number of bacteria growing at the defined antibiotic concentration by the number of bacteria in the inoculum (Martinex, J L, Antimicrob Agents Chemother 2000; 44 (1):1771-1777).
# S. aureus = test: MIC by agar plate dilution method (CLSI); type: cell-based, Staphylococcus aureus
# Text: as §2, §3
# [3] = test system: Protein Synthesis in P. aeruginosa ATCC 27853; test: Macromolecular biosynthesis: 3H-amino acid incorporation; type: cell-based, Pseudomonas aeruginosa; conditions: for % Inhibition Protein: at 2 h relative to no-drug control, single experiment
# Protocol: as §1
# P. aeruginosa ATCC 27853 = test: Time-kill experiments in CAMHB with 2% mucin; type: cell-based, Pseudomonas aeruginosa
# Protocol: Time-kill experiments were performed according to a modified CLSI method (National Committee for Clinical Laboratory Standards. M-26A. Villanova (Pa.): NCCLS, 1999). […] Bacterial cultures and antibiotic(s) were incubated at 37° C. in a shaking water bath (200 rpm) and killing activity assessed at 0, 1, 2, 4, 6 and 24 h. Antibiotics that reduced the original inoculum by ≧3-Log10 were considered bactericidal. Antibiotics that reduced the original inoculum by ≦2-Log10 were considered bacteriostatic.
# P. aeruginosa [4] = type: cell-based, Pseudomonas aeruginosa
# Protocol: as §4
substance,measurement,setting,value
tobramycin sulfate,% Inhibition Cell Wall,[1]; 0.8 μg/mL,4%
same,% Inhibition Cell Wall,[1]; 1.6 μg/mL,10%
same,% Inhibition Cell Wall,[1]; 3.2 μg/mL,36%
same,MIC,P. aeruginosa [2]; P. aeruginosa ATCC 27853,0.5 µg/mL
same,MIC,P. aeruginosa [2]; P. aeruginosa C002,0.5 µg/mL
same,MIC,P. aeruginosa [2]; P. aeruginosa C003,0.5 µg/mL
same,MIC,P. aeruginosa [2]; P. aeruginosa C013,0.5 µg/mL
same,MIC,P. aeruginosa [2]; P. aeruginosa C014,0.5 µg/mL
same,Frequency of Resistance 4× MIC,"E. coli; E. coli ATCC 25922, 4× MIC",2.5 × 10^−6
same,Frequency of Resistance 8× MIC,"E. coli; E. coli ATCC 25922, 8× MIC",1.5 × 10^−7
same,Frequency of Resistance 16× MIC,"E. coli; E. coli ATCC 25922, 16× MIC",8.7 × 10^−8
same,Frequency of Resistance 4× MIC,"E. coli; E. coli C032, 4× MIC",1.3 × 10^−6
same,Frequency of Resistance 8× MIC,"E. coli; E. coli C032, 8× MIC",5.5 × 10^−6
same,Frequency of Resistance 16× MIC,"E. coli; E. coli C032, 16× MIC",6.2 × 10^−7
same,Frequency of Resistance 4× MIC,"E. coli; E. coli C036, 4× MIC",4.4 × 10^−6
same,Frequency of Resistance 8× MIC,"E. coli; E. coli C036, 8× MIC",4.7 × 10^−7
same,Frequency of Resistance 16× MIC,"E. coli; E. coli C036, 16× MIC",1.9 × 10^−9
same,Frequency of Resistance 4× MIC,"E. coli; E. coli C037, 4× MIC",1.0 × 10^−6
same,Frequency of Resistance 8× MIC,"E. coli; E. coli C037, 8× MIC",4.4 × 10^−6
same,Frequency of Resistance 16× MIC,"E. coli; E. coli C037, 16× MIC",1.1 × 10^−7
same,Frequency of Resistance 4× MIC,"E. coli; E. coli C294, 4× MIC",6.6 × 10^−5
same,Frequency of Resistance 8× MIC,"E. coli; E. coli C294, 8× MIC",1.3 × 10^−6
same,Frequency of Resistance 16× MIC,"E. coli; E. coli C294, 16× MIC",<7.2 × 10^−9
same,MIC,S. aureus; S. aureus ATCC 29213,0.25 µg/mL
same,MIC,S. aureus; S. aureus C051,0.25 µg/mL
same,MIC,S. aureus; S. aureus C053,0.25 µg/mL
same,MIC,S. aureus; S. aureus C055,0.25 µg/mL
same,MIC,S. aureus; S. aureus C057,0.5 µg/mL
same,% Inhibition Protein,[3]; 0.8 μg/mL,2%
same,time to 50% inhibition (T1/2) of protein synthesis,[3]; 1.6 μg/mL (FIG. 5),> 3 h
same,% Inhibition Protein,[3]; 1.6 μg/mL,6%
same,% Inhibition Protein,[3]; 3.2 μg/mL,42%
same,killing activity at 24 h,"P. aeruginosa ATCC 27853; 24 h, FT4:1 16 μg/mL, fosfomycin 12.8 μg/mL, tobramycin 3.2 μg/mL, mucin, FIG. 4",re-growth of the bacterial culture
same,killing activity,"P. aeruginosa ATCC 27853; FT4:1 at 4×MIC (16 μg/mL), component weights fosfomycin 12.8 μg/mL, tobramycin 3.2 μg/mL, mucin, FIG. 4",bacteriostatic killing
same,bacterial killing on increasing the concentration,"P. aeruginosa ATCC 27853; increase from 2 μg/mL to 4 μg/mL (2-fold), FIG. 2",> 4 Log10
same,"killing activity (bactericidal ≧3-Log10, bacteriostatic ≦2-Log10)","P. aeruginosa ATCC 27853; multiples of the MIC, FIG. 1-3",rapidly bactericidal
same,enhancement of bacterial killing in the presence of fosfomycin,"P. aeruginosa ATCC 27853; tobramycin 3.2 μg/mL in the presence of 12.8 μg/mL fosfomycin, FIG. 4",3 Log10 CFU/mL
same,Frequency of Resistance 4× MIC,"P. aeruginosa [4]; P. aeruginosa ATCC 27853, 4× MIC",3.0 × 10^−5
same,Frequency of Resistance 8× MIC,"P. aeruginosa [4]; P. aeruginosa ATCC 27853, 8× MIC",2.2 × 10^−7
same,Frequency of Resistance 16× MIC,"P. aeruginosa [4]; P. aeruginosa ATCC 27853, 16× MIC",1.6 × 10^−8
same,Frequency of Resistance 4× MIC,"P. aeruginosa [4]; P. aeruginosa C002, 4× MIC",1.1 × 10^−5
same,Frequency of Resistance 8× MIC,"P. aeruginosa [4]; P. aeruginosa C002, 8× MIC",1.1 × 10^−7
same,Frequency of Resistance 16× MIC,"P. aeruginosa [4]; P. aeruginosa C002, 16× MIC",4.4 × 10^−8
same,Frequency of Resistance 4× MIC,"P. aeruginosa [4]; P. aeruginosa C003, 4× MIC",4.2 × 10^−5
same,Frequency of Resistance 8× MIC,"P. aeruginosa [4]; P. aeruginosa C003, 8× MIC",1.8 × 10^−7
same,Frequency of Resistance 16× MIC,"P. aeruginosa [4]; P. aeruginosa C003, 16× MIC",7.2 × 10^−8
same,Frequency of Resistance 4× MIC,"P. aeruginosa [4]; P. aeruginosa C013, 4× MIC",1.4 × 10^−6
same,Frequency of Resistance 8× MIC,"P. aeruginosa [4]; P. aeruginosa C013, 8× MIC",3.7 × 10^−6
same,Frequency of Resistance 16× MIC,"P. aeruginosa [4]; P. aeruginosa C013, 16× MIC",8.2 × 10^−7
same,Frequency of Resistance 4× MIC,"P. aeruginosa [4]; P. aeruginosa C014, 4× MIC",1.3 × 10^−6
same,Frequency of Resistance 8× MIC,"P. aeruginosa [4]; P. aeruginosa C014, 8× MIC",1.1 × 10^−7
same,Frequency of Resistance 16× MIC,"P. aeruginosa [4]; P. aeruginosa C014, 16× MIC",7.9 × 10^−7
